Results: patent US20240366785A1 (priority 2021, published 2024)

Test system: human patients having XLMTM
Experiment: Ursodiol treatment of hyperbilirubinemia after resamirigene bilparvovec
Type: in vivo
Protocol: A subject (115-9001) experienced an SAE of Grade 3 cholestasis which required hospitalization. The subject's medical history included cholestasis and elevated total bilirubin. Approximately 5 weeks after dosing, the subject had elevated direct bilirubin levels (Grade 2) which was treated with ursodiol and resolved 6 weeks later. Approximately 11 weeks after dosing, the subject experienced cholestasis and decision was made to hospitalize the subject 9 days after cholestasis was reported. The cholestasis resolved after approximately 12 weeks. Cholestasis was considered by the Investigator to be possibly related to resamirigene bilparvovec infusion. The subject's baseline history of cholestasis supports underlying disease as causal factor.
Cholestasis and hyperbilirubinemia are considered identified risks associated with resamirigene bilparvovec. Therefore, for subjects receiving resamirigene bilparvovec, ursodiol is recommended as prophylaxis for possible cholestatic syndromes. Ursodiol (ursodeoxycholic acid) is an enterally administered hydrophilic bile acid that can decrease the hydrophobic bile acid content within bile. […]

## C[C@H](CCC(=O)O)[C@H]1CC[C@H]2[C@@H]3[C@@H](O)C[C@@H]4C[C@H](O)CC[C@]4(C)[C@H]3CC[C@]12C [ursodiol, Ursodeoxycholic acid]
In some cases
  Transient hyperbilirubinemia following resamirigene bilparvovec: response to ursodiol: responsive
Subject 115-9001, after resamirigene bilparvovec 3.0×10^14 vg/kg
  Elevated direct bilirubin (Grade 2) treated with ursodiol: time to resolution: 6 weeks
